Test results taken from patent publication US10351540B2, “1,2-dithiolane and dithiol compounds useful in treating mutant EGFR-mediated diseases and conditions” (Sabila Biosciences LLC, priority 2017, dated 2019).

Legend:
EGFR (L858R) = molecular target: T1, EGFR (L858R) (Homo sapiens, UniProt P00533, L858R); assay: KinaseSeeker competition binding assay, rabbit reticulocyte lysate (Method A); settings: 7-point curve, duplicate
T1 construct: made in house; host or cells: cell-free translation in rabbit reticulocyte lysate
Experimental: Method A: Rabbit Reticulocyte Lysate Assay Design: KinaseSeeker is a homogeneous competition binding assay where the displacement of an active site dependent probe by an inhibitor is measured by a change in luminescence signal. Luminescence readout translates into a highly sensitive and robust assay with low background and minimal interference from test compounds.
10 mM stock solutions of test compounds were serially diluted in DMSO to make assay stocks. Prior to initiating IC50 determinations, the test compounds were evaluated for false positive against split-luciferase.
Each test compound was screened in duplicate against target kinase i.e. EGFR (L858R) at 7 different concentrations. For kinase assays, Cfluc-kinase was translated along with Fos-Nfluc using a cell-free system (rabbit reticulocyte lysate) at 30° C. for 90 min. […] 80 uL of luciferin assay reagent was added to each solution and luminescence was immediately measured on a luminometer.
The % Inhibition and % Activity Remaining was calculated using the following equation: % Inhibition=[(ALUControl=ALUSample)/ALUControl]×100 % Activity Remaining=100−% Inhibition
The % Activity was plotted against compound concentration and the IC50 was determined for each compound using a 7-point curve (Jester, B. W.; et. al. J. Am. Chem. Soc. 2010, 132, 11727-11735. Jester, B. W.; et. al. J. Med. Chem. 2012, 55, 1526-1537). […]

EGFR T790M = molecular target: T2, EGFR T790M (Homo sapiens, UniProt P00533, T790M); assay: KINOMEscan competition binding kinase assay, Kd (Method B); settings: Method B (Kd values)
T2 construct: made in house; host or cells: T7 phage in E. coli (BL21-derived) or HEK-293 cells
T2 sequence (P00533 25-1210 T790M): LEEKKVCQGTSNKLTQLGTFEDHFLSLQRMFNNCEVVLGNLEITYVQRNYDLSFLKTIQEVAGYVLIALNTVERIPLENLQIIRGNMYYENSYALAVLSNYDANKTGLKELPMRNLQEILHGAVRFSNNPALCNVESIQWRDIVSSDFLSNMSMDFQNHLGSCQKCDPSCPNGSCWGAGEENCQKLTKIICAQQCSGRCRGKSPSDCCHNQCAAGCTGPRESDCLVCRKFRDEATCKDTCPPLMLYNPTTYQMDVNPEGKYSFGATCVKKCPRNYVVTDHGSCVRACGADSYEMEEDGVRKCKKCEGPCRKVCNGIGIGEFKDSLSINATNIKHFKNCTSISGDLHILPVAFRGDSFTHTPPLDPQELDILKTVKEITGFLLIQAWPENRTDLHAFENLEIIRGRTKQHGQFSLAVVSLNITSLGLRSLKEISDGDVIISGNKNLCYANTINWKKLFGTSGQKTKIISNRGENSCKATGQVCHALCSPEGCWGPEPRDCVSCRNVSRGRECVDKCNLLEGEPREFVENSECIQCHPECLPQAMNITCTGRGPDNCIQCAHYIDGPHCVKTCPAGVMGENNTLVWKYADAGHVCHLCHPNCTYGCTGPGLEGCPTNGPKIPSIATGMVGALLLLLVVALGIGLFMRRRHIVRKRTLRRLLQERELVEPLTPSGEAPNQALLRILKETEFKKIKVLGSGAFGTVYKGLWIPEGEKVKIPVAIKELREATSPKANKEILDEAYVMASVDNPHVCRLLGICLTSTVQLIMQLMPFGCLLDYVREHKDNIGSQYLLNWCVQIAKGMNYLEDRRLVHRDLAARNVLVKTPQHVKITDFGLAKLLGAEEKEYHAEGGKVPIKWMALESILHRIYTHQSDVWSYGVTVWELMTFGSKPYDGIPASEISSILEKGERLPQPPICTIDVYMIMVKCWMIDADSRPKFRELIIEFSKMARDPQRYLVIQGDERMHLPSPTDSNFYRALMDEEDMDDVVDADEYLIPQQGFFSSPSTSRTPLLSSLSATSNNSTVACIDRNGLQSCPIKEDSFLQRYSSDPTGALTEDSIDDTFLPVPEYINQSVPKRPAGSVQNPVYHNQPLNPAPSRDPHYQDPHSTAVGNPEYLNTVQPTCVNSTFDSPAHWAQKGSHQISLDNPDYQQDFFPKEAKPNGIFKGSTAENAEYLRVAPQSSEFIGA
Experimental: The assay is performed by combining three components: DNA-tagged kinase; immobilized ligand; and a test compound. The ability of the test compound to compete with the immobilized ligand is measured via quantitative PCR of the DNA tag.
For most assays, kinase-tagged T7 phage strains were prepared in an E. coli host derived from the BL21 strain. E. coli were grown to log-phase and infected with T7 phage and incubated with shaking at 32° C. until lysis. The lysates were centrifuged and filtered to remove cell debris. The remaining kinases were produced in HEK-293 cells and subsequently tagged with DNA for qPCR detection. Streptavidin-coated magnetic beads were treated with biotinylated small molecule ligands for 30 minutes at room temperature to generate affinity resins for kinase assays. The liganded beads were blocked with excess biotin and washed with blocking buffer (SeaBlock (Pierce), 1% BSA, 0.05% Tween 20, 1 mM DTT) to remove unbound ligand and to reduce non-specific binding. […] All reactions were performed in polystyrene 96-well plates in a final volume of 0.135 ml. […] The kinase concentration in the eluates was measured by qPCR.

T1 sequence (P00533 25-1210 L858R): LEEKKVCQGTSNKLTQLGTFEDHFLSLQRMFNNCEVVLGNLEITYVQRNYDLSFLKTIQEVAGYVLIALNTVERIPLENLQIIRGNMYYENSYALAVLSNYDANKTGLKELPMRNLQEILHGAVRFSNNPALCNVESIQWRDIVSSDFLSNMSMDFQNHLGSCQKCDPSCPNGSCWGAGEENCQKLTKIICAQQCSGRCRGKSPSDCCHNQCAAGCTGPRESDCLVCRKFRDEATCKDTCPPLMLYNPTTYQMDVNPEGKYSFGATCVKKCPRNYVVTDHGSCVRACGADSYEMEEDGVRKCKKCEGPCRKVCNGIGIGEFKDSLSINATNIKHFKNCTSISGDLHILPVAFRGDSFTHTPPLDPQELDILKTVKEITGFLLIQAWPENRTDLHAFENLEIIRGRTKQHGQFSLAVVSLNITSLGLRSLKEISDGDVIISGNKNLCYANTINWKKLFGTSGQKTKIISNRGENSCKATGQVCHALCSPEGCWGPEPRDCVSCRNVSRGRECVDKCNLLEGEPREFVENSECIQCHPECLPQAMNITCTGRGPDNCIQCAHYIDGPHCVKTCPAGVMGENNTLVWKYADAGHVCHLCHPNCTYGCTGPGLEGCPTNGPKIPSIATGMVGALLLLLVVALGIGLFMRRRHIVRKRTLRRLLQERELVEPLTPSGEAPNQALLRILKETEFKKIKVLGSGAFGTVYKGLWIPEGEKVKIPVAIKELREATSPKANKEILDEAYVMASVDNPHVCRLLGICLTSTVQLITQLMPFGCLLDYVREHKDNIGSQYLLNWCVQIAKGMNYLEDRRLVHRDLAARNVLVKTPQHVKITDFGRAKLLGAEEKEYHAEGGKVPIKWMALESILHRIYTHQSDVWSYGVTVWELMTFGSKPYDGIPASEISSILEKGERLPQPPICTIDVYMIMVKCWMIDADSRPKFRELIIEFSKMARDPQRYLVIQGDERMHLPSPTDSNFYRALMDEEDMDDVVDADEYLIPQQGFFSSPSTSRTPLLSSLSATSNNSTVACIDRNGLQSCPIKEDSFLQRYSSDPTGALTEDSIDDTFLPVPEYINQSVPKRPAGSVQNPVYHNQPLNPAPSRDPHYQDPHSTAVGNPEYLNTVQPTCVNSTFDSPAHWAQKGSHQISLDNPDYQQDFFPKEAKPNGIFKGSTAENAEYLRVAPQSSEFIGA

**Q.** How did the IC50 (EGFR (L858R)) turn out when `CCOc1ncnc(Nc2ccc(OCc3cccc(F)c3)c(Cl)c2)c1NC(=O)CC1CCSS1` (centres unmarked) [Example 20] was run?
**A.** Its IC50 is 1 to 10 µM.

**Q.** Which Kd (EGFR T790M) does the source give for `COc1cc(N2CCN(C)CC2)ccc1Nc1ncc(Cl)c(Nc2cccc(NC(=O)C(CSC(C)=O)CSC(C)=O)c2)n1` [Example 40, S,S′-(2-((3-((5-chloro-2-((2-methoxy-4-(4-methylpiperazin-1-yl)phenyl)amino)pyrimidin-4-yl)amino)phenyl)carbamoyl)propane-1,3-diyl)diethanethioate] here?
**A.** The Kd was 0.1 to 0.999 µM.

**Q.** For `COc1cc(N(C)CCN(C)C)c(NC(=O)C2CSSC2)cc1Nc1nccc(-c2cn(C)c3ccccc23)n1` [Example 29, N-(2-((2-(dimethylamino)ethyl)(methyl)amino)-4-methoxy-5-((4-(1-methyl-1H-indol-3-yl)pyrimidin-2-yl)amino)phenyl)-1,2-dithiolane-4-carboxamide], which Kd (EGFR T790M) is on record?
**A.** Its Kd is 0.1 to 0.999 µM.

**Q.** How did the Kd (EGFR T790M) turn out when `COc1cc(N(C)CCN(C)C)c(NC(=O)C(CSC(C)=O)CSC(C)=O)cc1Nc1nccc(-c2cn(C)c3ccccc23)n1` [Example 28, S,S′-(2-((2-((2-(dimethylamino)ethyl)(methyl)amino)-4-methoxy-5-((4-(1-methyl-1H-indol-3-yl)pyrimidin-2-yl)amino)phenyl)carbamoyl)propane-1,3-diyl)diethanethioate] was run?
**A.** The Kd was 0.1 to 0.999 µM.

**Q.** Which Kd (EGFR T790M) does the source give for `COc1cc(N2CCN(C)CC2)ccc1Nc1ncc(Cl)c(Oc2cccc(NC(=O)C3CSSC3)c2)n1` [Example 36, N-(3-((5-chloro-2-((2-methoxy-4-(4-methylpiperazin-1-yl)phenyl)amino)pyrimidin-4-yl)oxy)phenyl)-1,2-dithiolane-4-carboxamide] here?
**A.** Its Kd is 1 to 10 µM.

**Q.** How did the Kd (EGFR T790M) turn out when `COc1cc(N2CCN(C)CC2)ccc1Nc1ncc(Cl)c(Nc2cccc(NC(=O)C3CSSC3)c2)n1` [Example 41, N-(3-((5-chloro-2-((2-methoxy-4-(4-methylpiperazin-1-yl)phenyl)amino)pyrimidin-4-yl)amino)phenyl)-1,2-dithiolane-4-carboxamide] was run?
**A.** The Kd was 0.001 to 0.099 µM.

**Q.** Which IC50 (EGFR (L858R)) does the source give for `O=C(C[C@@H]1CCSS1)Nc1c(Nc2ccc(OCc3cccc(F)c3)c(Cl)c2)ncnc1OC[C@H](O)CO` [Example 24, N-(4-((3-chloro-4-((3-fluorobenzyl)oxy)phenyl)amino)-6-((R)-2,3-dihydroxypropoxy)pyrimidin-5-yl)-2-((R)-1,2-dithiolan-3-yl)acetamide] here?
**A.** The IC50 was over 10 µM.

**Q.** Which Kd (EGFR T790M) does the source give for `COc1cc(N2CCN(C)CC2)ccc1Nc1ncc(Cl)c(Oc2cccc(NC(=O)C(CSC(C)=O)CSC(C)=O)c2)n1` [Example 35, S,S′-(2-((3-((5-chloro-2-((2-methoxy-4-(4-methylpiperazin-1-yl)phenyl)amino)pyrimidin-4-yl)oxy)phenyl)carbamoyl)propane-1,3-diyl)diethanethioate] here?
**A.** The Kd was over 10 µM.
